Among the data in PubChem BioAssay (NCI) are GI50 and TGI values, retold here.

Several values for one entry are separate records, joined by “and”; a condition that tells them apart may be missing. Identical values can stand only once.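 Exposure lasted 48 hours, with cells grown in 96-well plates and compounds tested at five concentrations. GI50: concentration for 50% inhibition of growth. TGI marks complete inhibition of growth.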 Bounds are passed on as bounds.

Among the test systems are MDA-MB-468 breast; HL-60(TB) leukemia; HCT-15 colon; RPMI-8226 leukemia; OVCAR-4 ovarian; 786-0 renal; OVCAR-3 ovarian; A498 renal; DU-145 prostate; TK-10 renal; MCF7 breast; ACHN renal; SNB-19 CNS; MOLT-4 leukemia; EKVX NSCLC; SK-MEL-2 melanoma; HCC-2998 colon; CCRF-CEM leukemia; RXF 393 renal; BT-549 breast; NCI-H23 lung.
Common to all, as to assay: NCI tumour cell line growth inhibition, 48 h

For the compound `COc1ccc(C(=O)c2ccccc2)c(O)c1`, in the test with MDA-MB-468 breast, the GI50 was 40 µM and the TGI is greater than 100 µM.

Take `COc1ccc(CN2c3ccccc3Sc3ccccc32)cc1O`: in the test with MDA-MB-468 breast, the GI50 was 0.531 µM and the TGI came out at 12.3 µM.

In the case of `COc1cc(N)c(Cl)cc1C(=O)N[C@@H]1CCN(CCCOc2ccc(F)cc2)C[C@@H]1OC`, in the test with MDA-MB-468 breast, the GI50 is 89.4 µM and the TGI is greater than 100 µM.

As to `CN(C)CCN=c1nc2c(c(N)n1-c1ccccc1)c(=S)n(-c1ccccc1)c(=S)n2-c1ccccc1`, in the test on MDA-MB-468 breast, the GI50 is 1.36 µM and the TGI came to 3.02 µM.

With `CCCCS(=O)(=O)c1cc(Nc2ccc(O)c3c2C(=O)c2ccccc2C3=O)ccc1C`, in the test with MDA-MB-468 breast, the GI50 is 88.3 µM and the TGI is greater than 100 µM.

`CCC(=C(c1ccc(OCCN2CCCCCC2)cc1)c1ccc(OCCN2CCCCCC2)cc1)c1ccc(Cl)cc1`: in the test with MDA-MB-468 breast, the GI50 is 0.656 µM and the TGI was 1.49 µM.

On to `COc1ccc(N=c2nc3sc4cc(Cl)ccc4n3c(N)c2C#N)cc1`, for which, in the test with MDA-MB-468 breast, the GI50 is 1.11 µM and the TGI turned out to be 19.7 µM.

For `CSCc1ncc(-c2ccc(C(F)(F)F)cc2)c(NC2CCCCCC2)n1`, in the test on MDA-MB-468 breast, the GI50 is greater than 10 µM and the TGI is greater than 10 µM.

`O=C(NCc1cn(Cc2cccc(Oc3ccccc3)c2)nn1)c1cccnc1NCc1ccc(Cl)cc1`: in the test on MDA-MB-468 breast, the GI50 was 3.44 µM and the TGI was greater than 100 µM.

Take `COc1cccc(C2C(C#N)=C(N)Oc3cc(OCCCCCC[P+](c4ccccc4)(c4ccccc4)c4ccccc4)ccc32)c1` (configuration not stated): in the test with MDA-MB-468 breast, the GI50 was 0.222 µM and the TGI is 0.611 µM.

`C=C1C(=O)O[C@@H]2C[C@@H](C)[C@@H]3C=CC(=O)[C@@]3(C)[C@@H](OC(=O)CCCC(=O)O[C@H]3[C@@H]4C(=C)C(=O)O[C@@H]4C[C@@H](C)[C@@H]4C=CC(=O)[C@]43C)[C@H]12`: in the test with MDA-MB-468 breast, the GI50 was 0.0143 µM and the TGI turned out to be 0.0328 µM.

As for `COc1ccc(C2=NNC(c3sc(Cl)nc3Cl)C2)cc1` (configuration not stated), in the test with MDA-MB-468 breast, the GI50 is 2.6 µM and the TGI amounted to 8.19 µM.

`COC(=O)N[C@@H](C)CNc1nccc(-c2cn(C(C)C)nc2-c2cc(Cl)cc(NS(C)(=O)=O)c2F)n1`: in the test on MDA-MB-468 breast, the GI50 is 24.8 µM and the TGI is greater than 100 µM.

With `Cc1cc(C)c(-c2c(O)c(Br)c(-c3c(C)cc(C)c(Br)c3C)c(O)c2Br)c(C)c1Br`, in the test on MDA-MB-468 breast, the GI50 was 2.83 µM and the TGI worked out at 11.1 µM.

`CCOc1ccc2cc(-c3nn(CC4CCN(C)CC4)c4ncnc(N)c34)ccc2c1`: in the test on MDA-MB-468 breast, the GI50 is 14.5 µM and the TGI came out at 32.2 µM.

Regarding `CCOC(=O)/C=C/c1ccc([N+](=O)[O-])o1`, in the test with MDA-MB-468 breast, the GI50 was 3.76 µM and the TGI came to 17.5 µM.

`N#C/C(=C/C=C/c1cccc(Cl)c1)S(=O)c1ccccc1` (configuration not stated): in the test with MDA-MB-468 breast, the GI50 is 0.258 µM and the TGI turned out to be 0.758 µM.

Turning to `O=C(O)C(Cc1ccccc1)N1C(=O)/C(=C/C(Cl)=C/c2ccc([N+](=O)[O-])cc2)SC1=S` (configuration not stated), in the test with MDA-MB-468 breast, the GI50 is 1.39 µM and the TGI is 3.28 µM.

For `CN(Cc1cnc2nc(N)nc(N)c2n1)c1c(Cl)cc(C(=O)NC(CCC(=O)O)C(=O)O)cc1Cl` (configuration not stated), in the test with MDA-MB-468 breast, the GI50 is less than 0.0211 µM.

As for `COc1ccc(/C=C(\C#N)c2cc(OC)c(OC)c(OC)c2)cc1`, in the test on MDA-MB-468 breast, the GI50 is 0.0222 µM and the TGI turned out to be 2.52 µM.

For `Cn1cc(-c2csc(-c3ccc(Cl)cc3)n2)c2cccnc21`, in the test on MDA-MB-468 breast, the GI50 was 10.5 µM and the TGI came to 31.1 µM.

Consider `Fc1ccc(-c2ncn(C3CCNCC3)c2-c2ccnc(Oc3ccc(Cl)cc3)n2)cc1`, for which, in the test with MDA-MB-468 breast, the GI50 is 1.78 µM and the TGI was 5.36 µM.

`COc1ccc(C2C3=C(COC3=O)Oc3cc4c(cc32)OCO4)cc1OC` (configuration not stated): in the test with MDA-MB-468 breast, the GI50 is 4.7 µM and the TGI is greater than 100 µM.

For the compound `CC(=O)c1nc(-c2ccc(C[C@@H](CNC(=O)CN(C)C)NC(=O)c3ccc(OC(C)C)c(Cl)c3)cc2)cn1C`, in the test on MDA-MB-468 breast, the GI50 is 0.0399 µM and the TGI was determined as 14.3 µM.

`CN(CCOc1ccc(NS(C)(=O)=O)cc1)CCc1ccc(NS(C)(=O)=O)cc1`: in the test on MDA-MB-468 breast, the GI50 is greater than 100 µM and the TGI is greater than 100 µM.

With `CCN(CC)c1ccc(/C=N/N=C(N)N)cc1`, in the test on MDA-MB-468 breast, the GI50 is 1.88 µM and the TGI worked out at 6.61 µM.

Consider `COc1ccc2c(c1)[n+](=O)c(/C=C/C(=O)c1cc(OC)c(OC)c(OC)c1)c(C)n2[O-]`, for which, in the test with MDA-MB-468 breast, the GI50 was 3.16 µM and the TGI worked out at 18 µM.

For the compound `C/C(=N\NC(=S)N1CCCC1)c1ccccn1`, in the test on MDA-MB-468 breast, the GI50 is less than 0.01 µM and the TGI is 0.0801 µM.

For the compound `CC(C)(O)c1cc(Nc2cc(Oc3cn(C4CC4)nc3C3CCOCC3)ccn2)ccn1`, in the test with MDA-MB-468 breast, the GI50 is 30.6 µM and the TGI was greater than 100 µM.

As for `COc1cc(C2CC(c3ccc(Cl)cc3)=NN2C(C)=O)ccc1Oc1ccnc2cc(Cl)ccc12` (configuration not stated), in the test on MDA-MB-468 breast, the GI50 was 4.22 µM and the TGI was greater than 100 µM.

As to `CCOC(=O)c1sc(NC(=O)COc2ccc(/C=C3\CCc4cc(OC)ccc4C3=O)cc2)nc1C`, in the test with MDA-MB-468 breast, the GI50 was 1.73 µM and the TGI worked out at 7.2 µM.

With `CCCCC[C@H]1C/C=C2/C(=O)C=C[C@@H]2C/C=C\CCCC(=O)O1`, in the test with MDA-MB-468 breast, the GI50 was 0.134 µM and the TGI worked out at 0.577 µM.

In the case of `COc1ccc2nc(Nc3cccc(NC(=O)c4ccc(CN5CCCN(C)CC5)c(C(F)(F)F)c4)c3)ccc2c1`, the GI50 is 0.189 µM with HL-60(TB) leukemia; 0.0511 µM in the test on HCT-15 colon; 0.176 µM in the test with RPMI-8226 leukemia; 0.171 µM in the test with OVCAR-4 ovarian; 0.169 µM with 786-0 renal; 0.177 µM in the test on OVCAR-3 ovarian. In addition, the GI50 with MDA-MB-468 breast is 0.125 µM; with A498 renal it was 0.177 µM; in the test with DU-145 prostate, 0.171 µM; in the test with TK-10 renal, 0.179 µM; in the test with MCF7 breast it was 0.121 µM; in the test on ACHN renal it was 0.171 µM. For the same compound, the GI50 was 0.173 µM in the test on SNB-19 CNS; 0.102 µM with MOLT-4 leukemia; 0.167 µM in the test on EKVX NSCLC; 0.175 µM with SK-MEL-2 melanoma; 0.175 µM in the test on HCC-2998 colon; 0.173 µM in the test on CCRF-CEM leukemia. Moreover, the GI50 in the test on RXF 393 renal was 0.134 µM; with BT-549 breast, 0.16 µM; in the test on NCI-H23 lung, 0.148 µM. Further, the TGI in the test with HL-60(TB) leukemia stood at 0.438 µM; in the test on HCT-15 colon, 0.17 µM; in the test on RPMI-8226 leukemia, 0.456 µM; in the test on OVCAR-4 ovarian it was 0.34 µM; in the test with 786-0 renal, 0.309 µM; with OVCAR-3 ovarian, 0.334 µM. Moreover, the TGI turned out to be 0.256 µM in the test with MDA-MB-468 breast; 0.325 µM with A498 renal; 0.316 µM with DU-145 prostate; 0.318 µM in the test on TK-10 renal; 0.261 µM in the test with MCF7 breast; 0.308 µM with ACHN renal. The TGI amounted to 0.313 µM with SNB-19 CNS; 0.352 µM in the test on MOLT-4 leukemia; 0.307 µM with EKVX NSCLC; 0.315 µM with SK-MEL-2 melanoma; 0.313 µM with HCC-2998 colon; 0.531 µM in the test with CCRF-CEM leukemia. Moreover, the TGI was 0.267 µM in the test on RXF 393 renal, 0.297 µM in the test on BT-549 breast and 0.282 µM in the test with NCI-H23 lung.

On to `CCS(=O)(=O)c1cccc(-c2cc(C(=O)NC3CCN(C)CC3)c(C)c3[nH]c4ncc(C)cc4c23)c1`, for which, in the test on MDA-MB-468 breast, the GI50 is 0.192 µM and 0.0869 µM; the TGI is 2.69 µM and 0.47 µM.
